From US10597378B2 (priority 2017, dated 2020)
Read-outs that look alike come from different tables or passages of the source.

Key:
MOR = MOR (Homo sapiens, UniProt P35372); assay: cell-based; design: expressed in transfected cells; host or cells: CHO-K1/MOR/Ga15 cells; conditions: for FLIPR Ca2+ AUC: area under the [Ca2+]i fluorescence response curve, up to 90 s
Procedure: In an exemplary in vitro assay for identifying MOR agonists, cells that express a MOR are treated with a test compound in a cellular calcium fluorescent assay and calcium fluorescence intensity is then measured to determine whether the MOR is activated. A test compound is identified as a MOR agonist if the MOR is activated.
EC50 herein refers to the concentration of a compound that induces a response halfway between the baseline and the maximum after a specified exposure time. AUC refers to the area under the response curve, an indication of the compound's capability of activating a MOR.
One day before the assay, CORNING® black with clear flat bottom 96-well assay plates were coated with a 0.1 mg/mL Poly-L-Lysine solution. CHO-K1/MOR/Ga15 cells were suspended in the F12 medium and plated at a density of about 8×10^4 cells/well in […] medium. Cells were incubated in a humidified atmosphere of 10% CO2 at 37° C. overnight so as to reach an 80-90% confluent cell monolayer before the assay. On the day of the assay, 150 μL medium/well was removed from plate. […] Compounds and other reagents were dissolved in the assay buffer. […] The [Ca^2+]i fluorescence was measured up to 90 s after agonist injection.

[1] = test system: wild-type C57BL/6 (B6) mice; assay: Tail flick test (acute thermal pain); format: in vivo, mouse; conditions: equi-antinociceptive doses, B6 mice
B6 mice [2] = assay: Respiratory function test; conditions: acute, equi-antinociceptive doses
B6 mice [3] = assay: Cardiovascular function test (tail cuff plethysmography); conditions: acute, equi-antinociceptive doses
mice = assay: Conditioned place preference (CPP) test, reinstatement of morphine CPP; conditions: challenge on reinstatement day (Day 21)
human mu-opioid receptor = biological target: T1, human mu-opioid receptor (Homo sapiens, UniProt P35372); assay: cell-based; format: cell-based
T1 construct: expressed in transfected cells; host or cells: HEK-293 (HEK-MOR), kept under G418
T1 sequence (P35372 whole entry): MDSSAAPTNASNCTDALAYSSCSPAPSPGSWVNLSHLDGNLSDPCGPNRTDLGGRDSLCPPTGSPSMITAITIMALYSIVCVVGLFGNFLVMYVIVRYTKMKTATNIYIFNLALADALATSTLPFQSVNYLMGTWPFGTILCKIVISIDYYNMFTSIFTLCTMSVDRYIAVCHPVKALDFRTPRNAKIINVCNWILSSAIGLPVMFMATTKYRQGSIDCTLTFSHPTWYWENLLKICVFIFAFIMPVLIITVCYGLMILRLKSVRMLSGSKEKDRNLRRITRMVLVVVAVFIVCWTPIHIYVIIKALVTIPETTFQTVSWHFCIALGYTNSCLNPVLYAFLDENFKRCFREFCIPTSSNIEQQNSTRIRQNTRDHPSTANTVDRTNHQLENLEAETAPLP
Procedure: Cells (72,000 per well) were plated in 100 μl/well of DMEM in 96-well solid-bottom white plates (GIBCO) and 50 μl/well of drug in HBSS in the presence of forskolin and 3-isobutyl-1-methylxanthine at final concentrations of 1 μM and 500 μM, respectively. After 30 min of incubation at room temperature, the concentration of cyclic adenosine monophosphate was determined using a LANCE Ultra cAMP Assay kit (PerkinElmer).
As MOR belongs to the GPCR family, activation of MOR leads to a decrease in intracellular cAMP level.

[4] = CHO-K1/MOR/Ga15 cells, read-out: FLIPR Ca2+ EC50

MOR, sequence (P35372 whole entry): as above

Row | Compound | EC50 (MOR; [4]) | FLIPR Ca2+ AUC (MOR) | also measured
1 | CCC1CCC(C(=O)NCC2NCCc3ccccc32)CC1 (centres unmarked) [Compound 40, 4-Ethyl-N-(1,2,3,4-tetrahydro-1-isoquinolinylmethyl)cyclohexanecarboxamide] | 1.12 µM | 10059 | 
2 | O=C(NCC1c2ccccc2CCN1S(=O)(=O)c1ccc(Br)cc1OC(F)(F)F)N1CCCCC1 (centres unmarked) [Compound 25, N-[(2-{[4-Bromo-2-(trifluoromethoxy)phenyl]sulfonyl}-1,2,3,4-tetrahydro-1-isoquinolinyl)methyl]-1-piperidinecarboxamide] | 2.77 µM | 10498 | 
3 | Cc1cc(F)ccc1S(=O)(=O)N1CCc2ccccc2C1CNC(=O)C1CCCCC1 (centres unmarked) [Compound 16, N-({2-[(4-Fluoro-2-methylphenyl)sulfonyl]-1,2,3,4-tetrahydro-1-isoquinolinyl}methyl)cyclohexanecarboxamide] | 10 µM | 6213 | 
4 | Cc1ccc(C(=O)NCC2NCCc3ccccc32)cc1 (centres unmarked) [Compound 38, 4-Methyl-N-(1,2,3,4-tetrahydro-1-isoquinolinylmethyl)benzamide] |  |  | EC50 (MOR; read-out: FLIPR Ca2+ EC50): 0.14 µM
5 | CN1CC[C@]23c4c5ccc(O)c4O[C@H]2[C@@H](O)C=C[C@H]3[C@H]1C5.Cl [morphine, Morphine hydrochloride, reference compound] |  |  | time at which analgesic effects were exerted after acute injection [1]: 20 min; respiratory amplitude (tidal volume) (B6 mice [2]): significantly reduced respiratory amplitude (tidal volume) at 10 to 20 min; respiratory frequency (B6 mice [2]; 10-60 min): marked respiratory depression at 10 min and keep falling of respiratory frequency going through 60 min; blood pressure (B6 mice [3]): non-significant effect on blood pressure; heart rate (pulse) (B6 mice [3]): reduced from 10 to 30 min; rate-pressure product (B6 mice [3]): reduced from 10 to 20 min; reinstatement of morphine CPP (mice): induced reinstatement of morphine CPP
6 | O=C(NCC1NCCc2ccccc21)N1CCCCC1 (centres unmarked) [Compound 35, N-(1,2,3,4-Tetrahydro-1-isoquinolinylmethyl)-1-piperidinecarboxamide] | 3.31 µM |  | 
7 | CC1CCCCC1C(=O)NCC1NCCc2ccccc21 (centres unmarked) [Compound 41, 2-Methyl-N-(1,2,3,4-tetrahydro-1-isoquinolinylmethyl)cyclohexanecarboxamide] | 10 µM | 5627 | 
8 | O=C(NCC1NCCc2ccccc21)c1ccccc1F (centres unmarked) [Compound 57, 2-Fluoro-N-(1,2,3,4-tetrahydro-1-isoquinolinylmethyl)benzamide] | 3.28 µM | 12102 | 
9 | O=C(NCC1NCCc2ccccc21)c1cccc(F)c1 (centres unmarked) [Compound 52, 3-Fluoro-N-(1,2,3,4-tetrahydro-1-isoquinolinylmethyl)benzamide] | 0.78 µM | 11425 | 
10 | COc1ccc(S(=O)(=O)N2CCc3ccccc3C2CNC(=O)C2CCCCC2)cc1 (centres unmarked) [Compound 19, N-({2-[(4-Methoxyphenyl)sulfonyl]-1,2,3,4-tetrahydro-1-isoquinolinyl}methyl)cyclohexanecarboxamide] | 7.84 µM | 3418 | 
11 | O=C(NCC1c2ccccc2CCN1S(=O)(=O)c1ccc(Br)cc1C(F)(F)F)C1CCCCC1 (centres unmarked) [Compound 7, N-[(2-{[4-Bromo-2-(trifluoromethyl)phenyl]sulfonyl}-1,2,3,4-tetrahydro-1-isoquinolinyl)methyl]cyclohexanecarboxamide] | 2.56 µM | 7697 | 
12 | CCc1ccc(C(=O)NCC2c3ccccc3CCN2C)cc1 (centres unmarked) [Compound 65, 4-Ethyl-N-[(2-methyl-1,2,3,4-tetrahydro-1-isoquinolinyl)methyl]benzamide] | 0.01 µM | 18367 | 
13 | O=C(NCC1c2ccccc2CCN1S(=O)(=O)c1ccccc1OC(F)(F)F)C1CCCCC1 (centres unmarked) [Compound 13, N-[(2-{[2-(Trifluoromethoxy)phenyl]sulfonyl}-1,2,3,4-tetrahydro-1-isoquinolinyl)methyl]cyclohexanecarboxamide] | 3.31 µM | 5152 | 
14 | O=C(NCC1NCCc2ccccc21)c1ccc(Cl)cc1 (centres unmarked) [Compound 49, 4-Chloro-N-(1,2,3,4-tetrahydro-1-isoquinolinylmethyl)benzamide] |  |  | EC50 (MOR; read-out: FLIPR Ca2+ EC50): 0.23 µM
15 | CC(C)(C)C(=O)NCC1c2ccccc2CCN1S(=O)(=O)c1ccc(Br)cc1OC(F)(F)F (centres unmarked) [Compound 29, N-[(2-{[4-Bromo-2-(trifluoromethoxy)phenyl]sulfonyl}-1,2,3,4-tetrahydro-1-isoquinolinyl)methyl]-2,2-dimethylpropanamide] | 4.61 µM | 12780 | 
16 | CCc1ccc(C(=O)NCC2NCCc3ccccc32)cc1 (centres unmarked) [Compound 50, 4-Ethyl-N-(1,2,3,4-tetrahydro-1-isoquinolinylmethyl)benzamide] |  |  | EC50 (MOR; read-out: FLIPR Ca2+ EC50): 0.06 µM
17 | O=C(NCC1NCCc2ccccc21)c1ccccc1 (centres unmarked) [Compound 45, N-(1,2,3,4-Tetrahydro-1-isoquinolinylmethyl)benzamide] | 0.75 µM | 8628 | 
18 | O=C(NCC1c2ccccc2CCN1S(=O)(=O)c1ccc(Br)cc1OC(F)(F)F)N1CCCC1 (centres unmarked) [Compound 26, N-[(2-{[4-Bromo-2-(trifluoromethoxy)phenyl]sulfonyl}-1,2,3,4-tetrahydro-1-isoquinolinyl)methyl]-1-pyrrolidinecarboxamide] | 4.34 µM | 12484 | 
19 | [Met5]enkephalin [Met-5, reference compound] |  |  | cAMP production (human mu-opioid receptor): significantly decreased cAMP production
20 | O=C(NCC1NCCc2ccccc21)N1CCOCC1 (centres unmarked) [Compound 36, N-(1,2,3,4-Tetrahydro-1-isoquinolinylmethyl)-4-morpholinecarboxamide] | 8.08 µM |  | 
21 | O=C(NCC1c2ccccc2CCN1S(=O)(=O)c1ccc(Br)cc1Br)C1CCCCC1 (centres unmarked) [Compound 10, N-({2-[(2,4-Dibromophenyl)sulfonyl]-1,2,3,4-tetrahydro-1-isoquinolinyl}methyl)cyclohexanecarboxamide] | 3.31 µM | 7023 | 
22 | Cc1cc(Br)ccc1S(=O)(=O)N1CCc2ccccc2C1CNC(=O)C1CCCCC1 (centres unmarked) [Compound 8, N-({2-[(4-Bromo-2-methylphenyl)sulfonyl]-1,2,3,4-tetrahydro-1-isoquinolinyl}methyl)cyclohexanecarboxamide] | < 10 µM | 3757 | EC50 (MOR; FLIPR Ca2+ EC50, CHO-K1/MOR/Ga15 cells): 6.27 µM
